According to patent US10196403B2, “Compounds and compositions and uses thereof” (Sunovion Pharmaceuticals Inc., priority 2016, dated 2019):
Where two headings read alike, the source gives them in different places.

Key:
Type in all cases: in vivo
[1] = tested on: Male Balb/cJ mice; assay: Forced Swim test (FST); conditions: 30 minute pretreatment; time immobile over 6 minute trial
Experimental: Forced Swim Test Procedures
The Forced Swim test (FST) is an indicator of the antidepressant-like activity of a test compound. Male Balb/cJ mice (26-31 g) were given a 30 minute pretreatment with vehicle (sterile water), sertraline control or test compound. The FST consists of one 6 minute session of forced swimming in individual opaque cylinders containing water at a temperature of 23±2° C. The mouse will swim before “giving up” and becoming immobile, the time spent immobile was recorded over the 6 minute trial. A compound with antidepressant-like activity will decrease the time the mouse is immobile over the 6 minute trial. Data were analyzed by analysis of variance (ANOVA) followed by post-hoc comparisons with Fisher Tests when appropriate.

[2] = tested on: Male C57Bl/6J mice; assay: Amphetamine-induced hyperlocomotion assay; parameters: key: +++ = <1.0 mg/kg; ++ = 1-10 mg/kg; + = 10-30 mg/kg; NE = no effect; conditions: AMPH 4 mg/kg ip; stimulant-induced hyperactivity
Experimental: Amphetamine-Induced Hyperlocomotion Assay
Amphetamine (AMPH) is frequently used to induce or mimic a manic-like state. The antimanic-like effects of test compounds were evaluated in male C57Bl/6J mice. Mice were acclimatized to the experimental room for at least 1 hour prior to testing. The mice (n=10 per group) were administered vehicle or test compound and placed in the open field (OF) chambers for 30 minutes of baseline activity measurement. The mice were then injected with either water or AMPH (4 mg/kg, ip) and placed back in the OF chambers for a 60-minute testing session during which, the effects of test compounds on stimulant-induced hyperactivity behaviors (total distance traveled, rearing and stereotypy) were measured. Data were analyzed by analysis of variance (ANOVA) followed by post-hoc comparisons with Fisher Tests when appropriate.

[3] = tested on: Male C57Bl/6J mice; assay: Phencyclidine (PCP)-induced hyperlocomotion; conditions: PCP 2.5 mg/kg s.c.; distance traveled
Experimental: Phencyclidine (PCP)-Induced Hyperlocomotion
The PCP-induced hyperlocomotion assay is an indicator of antipsychotic-like activity. Male C57Bl/6J mice (20-26 g) were administered vehicle or test compound and placed in holding cages for 30 minutes, after which they were placed in the locomotor activity chambers for 30 minutes of baseline capture. The test chambers are Plexiglas rectangular chambers (24×45 cm) that fit inside two steel frames (9.5×18 inches) and are fitted with two-dimensional 4×8 beam grids to monitor horizontal and vertical locomotor activity. Total distance traveled was measured from horizontal beam breaks as the animal traveled. Following the 30 minute baseline period, all […] were injected with saline or PCP (2.5 mg/kg, s.c.) and returned to the locomotor activity chambers for a 60 minute test session. A compound with antipsychotic-like activity will decrease the distance traveled following administration of PCP. Data were analyzed by analysis of variance (ANOVA) followed by post-hoc comparisons with Fisher Tests when appropriate.

[4] = tested on: mice; assay: Neuropharmacological Assay (SmartCube); conditions: for minimal effective dose: Mus musculus, read-out: POTENCY (minimal effective dose, MED); for AD: ADHD (SmartCube probability) / AG: analgesic (SmartCube probability) / AX: anxiolytic (SmartCube probability) / CE: cognitive enhancer (SmartCube probability) / DP: anti-depressant (SmartCube probability) / MS: mood stabilizer (SmartCube probability) / PS: anti-psychotic (SmartCube probability) / SD: sedative hypnotic (SmartCube probability) / UN: uncharacterized CNS activity (SmartCube probability): mice, i.p. 15 min before test, most efficacious dose(s) of 3 doses
Outline: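 Behavior of treated mice captured by digital video and matched algorithmically against reference drug classes, yielding a class probability at the most efficacious of 3 i.p. doses (15 min pretreatment, NMP/PEG/propylene glycol vehicle). Potency given as MED, the mpk dose reaching ≥50% total activity across usually 0.3–30 mpk.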

[5] = tested on: Adult male AJ mice; assay: Tail suspension test (TST); parameters: key: +++ = <1.0 mg/kg; ++ = 1-10 mg/kg; + = 10-30 mg/kg; NE = no effect; conditions: oral gavage 30 min before test; time immobile
Description: The tail suspension test (TST) is a rodent screening test for potential (human) antidepressant drugs. It is based on the assumption that an animal will actively try to escape an aversive (stressful) stimulus. If escape is impossible, the animal will eventually stop trying (“give up”). In the TST, a mouse is suspended by the tail so that its body dangles in the air, head downward. Mice initially struggle to face upward and climb to a solid surface. When the animal stops struggling and hangs immobile it is considered to have “given up”. Shorter periods of immobility are characteristic of antidepressant-like activity. Accordingly, longer periods of immobility are considered indicative of a depressive-like state. It has been shown that treatment with an antidepressant drug will decrease the time the animal spends immobile. See generally L. Stem et al., Psychopharmacology (Berl). 1985; 85(3):367-70; B. Thierry et al., Psychopharmacology 1986; 90:284-85.
Procedure. Adult male AJ mice from Jackson Laboratories received vehicle (sterile water) or test compound orally by gavage, or the positive control desipramine (20 mg/kg, i.p.), in 10 mL/kg injection volumes, 30 min before being subjected to the Tail Suspension Test. In this test, mice are placed in the Tail Suspension chambers (white polyvinylchloride cubicles measuring 33×33×31.75 cm Med Associates, Inc. St. Albans, Vt.) by a piece of transparent (Scotch®) tape attached to the tail, from about the mid-tail, with approximately 2 cm of tape past the end of the tail for 10 min during which the time spent immobile is measured. A reduction in total time immobile relative to the vehicle condition indicates an antidepressant drug-like response.

[6] = MED = dose having 50% or more total activity in SmartCube

SMILES	FST: efficacious dose [1]	AMPH: efficacious dose [2]	PCP: efficacious dose [3]	minimal effective dose [4] [mg/kg]	AD: ADHD (SmartCube probability) [4]	AG: analgesic (SmartCube probability) [4]	AX: anxiolytic (SmartCube probability) [4]	CE: cognitive enhancer (SmartCube probability) [4]	DP: anti-depressant (SmartCube probability) [4]	MS: mood stabilizer (SmartCube probability) [4]	PS: anti-psychotic (SmartCube probability) [4]	SD: sedative hypnotic (SmartCube probability) [4]	UN: uncharacterized CNS activity (SmartCube probability) [4]	TST: efficacious dose [5]	minimal effective dose [4, 6] [mg/kg]
CNC[C@@H]1OCCc2ccc3c(c21)OCO3 [Example 2, (R)-1-(6,9-dihydro-7H-[1,3]dioxolo[4,5-h]isochromen-9-yl)-N-methylmethanamine]	+++ (+++ = <1.0 mg/kg)	NE	+++ (+++ = <1.0 mg/kg)	< 3	+ (LOQ≤ + <5%)	++ (5%≤ ++ <25%)	++ (5%≤ ++ <25%)	++ (5%≤ ++ <25%)	+++ (25%≤ +++ <50%)	++ (5%≤ ++ <25%)	++ (5%≤ ++ <25%)	+ (LOQ≤ + <5%)	+++ (25%≤ +++ <50%)		
CNC[C@@H]1OCCc2cc(F)ccc21 [Example 17, (R)-1-(6-fluoroisochroman-1-yl)-N-methylmethanamine]		++ (++ = 1-10 mg/kg)			+ (LOQ≤ + <5%)	++ (5%≤ ++ <25%)	++ (5%≤ ++ <25%)	+++ (25%≤ +++ <50%)	++ (5%≤ ++ <25%)	+ (LOQ≤ + <5%)	+++ (25%≤ +++ <50%)	+ (LOQ≤ + <5%)	++ (5%≤ ++ <25%)	NE	< 3
CNC[C@@H]1OCCc2cccc(F)c21 [Example 26, (R)-1-(8-fluoroisochroman-1-yl)-N-methylmethanamine]	+++ (+++ = <1.0 mg/kg)	+ (+ = 10-30 mg/kg)	+++ (+++ = <1.0 mg/kg)		+ (LOQ≤ + <5%)	++ (5%≤ ++ <25%)	++ (5%≤ ++ <25%)	++ (5%≤ ++ <25%)	++++ (50%≤ ++++)	+ (LOQ≤ + <5%)	++ (5%≤ ++ <25%)	++ (5%≤ ++ <25%)	+++ (25%≤ +++ <50%)	NE	< 3
